Data on 68 molecules can be found in patent publication US20110230478A1 (Bayer ScienceCrop AG, priority 2008, published 2011).

Like-named read-outs stand apart in the source and are kept apart here.

A short description of the series: logP by HPLC on reversed-phase columns (C 18), EEC Directive 79/831 Annex V.A8. It is filed as physicochemical.
The mark [1] stands for this setting: values marked [b], footnote not given.
The mark [2] stands for this setting: method marker [b], footnote not given, compound 68 value matches logP (pH 2.3).
Where [3] appears, read: method marker [a], footnote not given.
Setting [4] is: reversed-phase HPLC column (C 18), pH 2.3, pH 2.3, 0.1% aqueous phosphoric acid and acetonitrile, read-out: logP [a].
Where [5] appears, read: method marker [b] (compound 257: pH2.7).
[6] abbreviates: method marker [c], footnote not given.
[7] abbreviates: values marked [c], footnote not given.

Turning to `COCC(Nc1nc(Nc2ccccc2)ncc1Br)C(C)C` (stereo not shown) [Example 224], the logP under setting [1] is 2.55[b].

For `COCC(C)Nc1nc(Nc2ccc(OC)c(OC)c2)ncc1Cl` (stereo not shown) [Example 84], under setting [2], the logP was 1.46[b].

Regarding `CCC(C)N(C)c1nc(Nc2cccc(C(C)=O)c2)ncc1Cl.Cl` (stereo not shown) [Example 41], the logP under setting [3] is 2.88[a].

In the case of `CC(C)Nc1nc(Nc2ccc3cc[nH]c3c2)ncc1Cl` [Example 215], under setting [1], the logP is 1.63[b].

Take `CCC(C)N(C)c1nc(Nc2ccccc2)ncc1Cl` (stereo not shown) [Example 40]: under setting [3], the logP was 2.85[a].

For the molecule `CCC(=O)N(C)c1cccc(N)c1` [IV-9, N-(3-aminophenyl)-N-methylpropanamide], the chromatographic logP under setting [4] was determined as 0.63.

As to `CC(C)N(C)S(=O)(=O)Cc1cccc([N+](=O)[O-])c1` [IV-2, N-methyl-N-(propan-2-yl)-1-(3-nitrophenyl)methanesulphonamide], the chromatographic logP under setting [4] worked out at 2.35.

In the case of `CC(=O)Cc1cccc(Nc2ncc(Cl)c(NC3CCCC3)n2)c1` [Example 255], the logP under setting [5] was 2.01[b].

For the molecule `CNC(=O)c1cccc(Nc2ncc(Cl)c(NC(C)COC)n2)c1` (racemic) [Example 142], under setting [1], the logP was 1.32[b].

As for `CC(=O)c1cccc(Nc2ncc(Cl)c(NC3CCCCC3)n2)c1` [Example 262], under “method marker [a]”, the logP was 2.53[a].

Consider `COCC(C)Nc1nc(Nc2ccc(NC3CC3)nc2)ncc1Cl` (stereo not shown) [II-3], for which the “logP [b]” value (LC-MS, pH 2.7, 0.1% aqueous formic acid and acetonitrile) is 1.17[b].

Take `Brc1cnc(Nc2ccccc2)nc1NC1CCCC1` [Example 253]: the logP under setting [5] was 2.47[b].

As to `CCC(=O)c1ccc(Nc2ncc(Br)c(NC(C)COC)n2)cc1` (stereo not shown) [Example 78], the logP under setting [2] was 2.57[b].

`COc1cc(Nc2ncc(Cl)c(NCCO)n2)cc(OC)c1.Cl` [Example 54]: the logP under setting [3] was 1.26[a].

`CC(C)Nc1nc(Nc2cccc(CN3CCN(C)C3=O)c2)ncc1Cl` [Example 48]: the logP under setting [2] was 1.54[b] and the logP under setting [6] was 2.56[c];.

`COCC(C)Nc1nc(Nc2ccc(N(C)C(C)=O)cc2)ncc1Br` (stereo not shown) [Example 119]: under setting [2], the logP was 1.56[b].

Take `C=CCNc1nc(Nc2ccccc2)ncc1Cl` [Example 286]: the logP was 1.64[b] under setting [5] and 3.1[c]; (method marker [c]).

Turning to `COCC(C)Nc1nc(Nc2cccc(S(=O)(=O)N3CCOCC3)c2)ncc1Cl` (stereo not shown) [Example 29], the logP runs as follows: under setting [3], 2.1[a];; under setting [2], 2.04[b].

As for `COCC(C)Nc1nc(Nc2cccc(C(C)=O)c2)ncc1Cl` (stereo not shown) [Example 15], the logP under setting [3] is 1.72[a].

As for `OCCNc1nc(Cl)ncc1Cl` [Example V-5, 2,5-dichloro-N-(2-hydroxyethyl)pyrimidine-4-amine], the chromatographic logP under setting [4] was determined as 0.97.

With `COc1cc(Nc2ncc(Cl)c(NC3CCCCC3)n2)cc(OC)c1` [Example 260], under setting [5], the logP is 2.77[b].

With `CCOC(=O)Nc1cccc(Nc2ncc(Cl)c(NC(C)C)n2)c1` [Example 216], the logP under setting [1] is 1.81[b].

For the molecule `OCCNc1nc(Nc2ccccc2)ncc1Cl` [Example 285], the logP by setting is: under setting [5], 0.7[b]; (method marker [c]) 1.83[c];.

On to `CC(=O)c1ccc(Nc2ncc(Cl)c(NC3CCCCC3)n2)cc1` [Example 266], for which the logP (method marker [a]) is 2.77[a].

With `CCN(C)c1nc(Nc2ccccc2)ncc1Cl` [Example 241], the logP under setting [1] is 2.11[b] and the logP under setting [7] was 3.85[c];.

On to `C=CCN(C)c1nc(Nc2ccccc2)ncc1Cl` [Example 271], for which the logP reads like this: under setting [5], 2.66[b]; (method marker [c]) 4.03[c];.

For the molecule `CCOc1cccc(Nc2ncc(Br)c(NC(C)COC)n2)c1` (stereo not shown) [Example 116], the logP under setting [2] was 2.18[b].

`CS(=O)(=O)c1ccc(Nc2ncc(Cl)c(NC3CCCCC3)n2)cc1` [Example 267]: the logP (method marker [a]) is 2.54[a].

On to `CSCCNc1nc(Nc2ccccc2)ncc1C#N` [Example 67], for which the logP under setting [2] was 2.6[b].

Regarding `COCC(C)Nc1nc(Nc2ccc(O)c(C(C)=O)c2)ncc1Cl` (stereo not shown) [Example 159], the logP under setting [1] was 1.68[b].

Consider `COCC(C)Nc1nc(Nc2ccc(CC(=O)C(C)(C)C)cc2)ncc1Cl` (stereo not shown) [Example 151], for which the logP under setting [1] is 2.26[b].

Turning to `Clc1ncc(Cl)c(NC2CCCCC2)n1` [Example V-18, 2,5-dichloro-N-cyclohexylpyrimidine-4-amine], under setting [4], the chromatographic logP came to 3.47.

With `COCC(C)Nc1nc(Nc2cc(Cl)cc(Cl)c2)ncc1Cl` (stereo not shown) [Example 94], the logP under setting [2] was 4.08[b].

`CNC(=O)c1ccc(Nc2ncc(Br)c(NC(C)COC)n2)cc1` (racemic) [Example 127]: the logP under setting [1] is 1.46[b].

As for `CCCNc1nc(Nc2cccc(SC)c2)ncc1Cl` [Example 284], the logP by setting is: under setting [5], 2.3[b]; (method marker [c]) 3.87[c];.

For `COCC(C)Nc1nc(Nc2cc(OC)cc(OC)c2)ncc1Cl` (stereo not shown) [Example 14], under setting [3], the logP was 1.94[a].

For the molecule `COCC(C)Nc1nc(Nc2cccc(C(=O)NC(C)(C)C)c2)ncc1Cl` (stereo not shown) [Example 157], the logP under setting [1] is 1.99[b].

In the case of `CC(C)CC(C)N(C)c1nc(Nc2ccccc2)ncc1Br` (stereo not shown) [Example 233], for the setting “values marked [d], footnote not given”, the logP was 3.39[d].

`COCC(C)Nc1nc(Nc2ccc(SC(F)(F)F)cc2)ncc1Cl` (stereo not shown) [Example 88]: the logP under setting [2] is 3.81[b].

In the case of `COCC(C)Nc1nc(Nc2ccc3c(c2)OC(F)(F)C(F)(F)O3)ncc1Cl` (stereo not shown) [Example 92], under setting [2], the logP was 3.85[b].

With `CSc1ccc(Nc2ncc(Cl)c(NC(C)C)n2)cc1Cl` [Example 187], the logP under setting [1] is 2.91[b].

Consider `CCC(CO)Nc1nc(Nc2cccc(C(C)=O)c2)ncc1Cl` (stereo not shown) [Example 21], for which the logP under setting [3] was 1.53[a].

As for `CC(C)c1cccc(Nc2ncc(C(F)(F)F)c(NC3CCCC3)n2)c1` [Example 257, N^4-Cyclopentyl-N^2-[3-(propan-2-yl)phenyl]-5-(trifluoromethyl)pyrimidine-2,4-diamine], the chromatographic logP was found to be 5.08 (reversed-phase HPLC column (C 18), pH 2.7, LC-MS, pH 2.7, 0.1% aqueous formic acid and acetonitrile, read-out: logP [b]); 5.08 (reversed-phase HPLC column (C 18), pH 2.7, method marker [b] (compound 257: pH2.7), read-out: logP).

Turning to `COCC(C)Nc1nc(Nc2cccc(CC(=O)OC)c2)ncc1Cl` (stereo not shown) [Example 93], under setting [2], the logP was 1.75[b].

With `CCC(C)N(C)c1nc(Cl)ncc1Cl` (stereo not shown) [Example V-15, N-(butan-2-yl)-2,5-dichloro-N-methylpyrimidine-4-amine], the chromatographic logP under setting [4] is 3.62.

Turning to `C=CCN(C)c1nc(Cl)ncc1Cl` [Example V-33, 2,5-dichloro-N-methyl-N-(prop-2-en-1-yl)pyrimidine-4-amine], the chromatographic logP under setting [4] stood at 2.98.

In the case of `CSc1cccc(Nc2ncc(Cl)c(N(C)C(C)C)n2)c1` [Example 219], the logP is 3.45[a]; (values marked [a], pH 2.3) and 4.64[c] under setting [7].

For `COCC(C)Nc1nc(Nc2ccc(NC=O)cc2)ncc1Cl` (racemic) [Example 138], the logP under setting [1] is 1.28[b].

Consider `CC(C)Nc1nc(Nc2cccc(CS(=O)(=O)N(C)C)c2)ncc1Cl` [Example 250], for which the logP runs as follows: under setting [5], 1.69[b]; (method marker [c]) 2.85[c];.

As for `COCCNc1nc(Nc2ccc(OC(C)C)cc2)ncc1Cl` [Example 12], the logP under setting [3] is 1.78[a].

`CC(C)(C)CNc1nc(Nc2ccccc2)ncc1Cl` [Example 273]: the logP under setting [5] is 2.48[b].

Regarding `CC(C)(C)Nc1nc(Cl)ncc1Cl` [Example V-17, N-t-butyl-2,5-dichloropyrimidine-4-amine], the chromatographic logP under setting [4] turned out to be 3.22.

Regarding `CC(C)Nc1nc(Nc2cccc(CS(=O)(=O)NCc3ccccc3)c2)ncc1Cl` [Example 251], the logP reads like this: under setting [5], 2.18[b]; (method marker [c]) 3.35[c];.

As to `COCC(C)Nc1nc(Nc2cccc(OC(F)(F)F)c2)ncc1Cl` (stereo not shown) [Example 87], the logP under setting [2] was 3.14[b].

Take `COC(=O)c1ccc(Nc2ncc(Cl)c(N(C)C)n2)cc1` [Example 39]: the logP is, setting by setting: under setting [3], 2.47[a];; under setting [6], 3.3[c].

As to `CC(C)(C)Nc1nc(Nc2ccc(S(=O)(=O)N3CCOCC3)cc2)ncc1Cl` [Example 64], under setting [3], the logP is 2.84[a].

As for `COCC(C)Nc1nc(Nc2ccc3sc(C)nc3c2)ncc1Cl` (stereo not shown) [Example 105], the logP under setting [2] is 1.75[b].

`C=C(C)CNc1nc(Nc2ccccc2)ncc1Cl` [Example 288]: the logP under setting [5] is 2.62[b].

For `CCC(C)CNc1nc(Nc2ccccc2)ncc1Cl` (stereo not shown) [Example 276], under setting [5], the logP was 2.37[b].

For `CCCCCNc1nc(Nc2ccccc2)ncc1Cl` [Example 278], under setting [5], the logP was 2.41[b].

In turn, `CCC(C)Nc1nc(Cl)ncc1Cl` (stereo not shown) [Example V-14, 2,5-dichloro-N-(butan-2-yl)pyrimidine-4-amine] gave a chromatographic logP (pH 2.3, logP [a]) of 2.94.

In the case of `CCC(CO)Nc1nc(Nc2ccccc2)ncc1Cl` (stereo not shown) [Example 18], under setting [3], the logP is 1.41[a].

In the case of `COCC(C)Nc1nc(Nc2ccc(Cl)c(S(C)(=O)=O)c2)ncc1Cl` (stereo not shown) [Example 100], under setting [2], the logP is 2.09[b].

Take `COCC(C)Nc1nc(Nc2ccc(O)nc2)ncc1Br` (stereo not shown) [II-4]: the “logP [a]” value (pH 2.3, 0.1% aqueous phosphoric acid and acetonitrile) is 0.58[a].

Consider `COCCN(C)c1nc(Nc2ccccc2)ncc1Cl` [Example 222, 5-Chloro-N^4-(2-methoxyethyl)-N^4-methyl-N^2-phenylpyrimidine-2,4-diamine], for which the chromatographic logP under setting [4] was found to be 2.02 and the chromatographic logP (reversed-phase HPLC column (C 18), pH 2.3, values marked [a], pH 2.3, read-out: logP) was determined as 2.02.

Turning to `CC(Nc1nc(Nc2ccccc2)ncc1Cl)[Si](C)(C)C` (stereo not shown) [Example 291], the logP under setting [5] was 2.66[b].

The molecule `CC(C)N(C)c1nc(Cl)ncc1Cl` [Example V-11, 2,5-dichloro-N-methyl-N-(propan-2-yl)pyrimidine-4-amine] showed a chromatographic logP (pH 2.3, logP [a]) of 3.16.

For `CCCN(C)c1nc(Nc2ccccc2)ncc1Cl` [Example 272], the logP by setting is: under setting [5], 2.55[b]; (method marker [c]) 4.35[c];.
